Tests used:
[1] = biological target: HIV reverse transcriptase (Human immunodeficiency virus type 1 group M subtype B, UniProt P03366); assay: Inhibitory activity on HIV reverse transcriptase; assay type: biochemical; details: compared with inhibitory activity on rat pol. β
Procedure: The confirmation of the inhibitory activity of nervonic acid on HIV reverse transcriptase was carried out.
Specifically, the inhibitory activity of nervonic acid on HIV reverse transcriptase was measured according to the method described in reference 8 listed below.

rat pol. β = rat pol. β (Rattus norvegicus, UniProt P06766); assay: Inhibitory activity on rat pol. β ([3H]-dTTP incorporation, poly(dA)/oligo(dT)12-18); assay type: biochemical; details: compared among fatty acids
Procedure: The activity of rat pol. β was measured according to the method described in reference 3 listed below, by using poly(dA)/oligo(dT)12-18 (template DNA) and [^3H]-dTTP (nucleotide) as substrates and measuring radiation of [^3H]-dTTP incorporated in the presence of nervonic acid of different concentrations.
FIG. 5 is a graph showing an inhibition curve. In FIG. 5, the vertical axis represents the activity of rat pol. β and the horizontal axis represents the concentration of nervonic acid.

DNA polymerase = details: reported by Ogawa et al., Jpn. J. Cancer Res. 89, 1154-1159, 1998; cited from earlier work

Row | SMILES | inhibitory activity on HIV reverse transcriptase (inhibition curve, FIG. 15) [1] | inhibition of rat pol. β (rat pol. β) | inhibitor on DNA polymerase (DNA polymerase)
1 | CCCCCCCC/C=C\CCCCCCCCCCCCCC(=O)O [nervonic acid, cis-15-tetracosenoic acid] | substantially equal to the inhibitory activity of nervonic acid on rat pol. β | one of the fatty acids which most strongly inhibit rat pol. β | 
2 | C[C@H](CCC(=O)O)[C@H]1CC[C@H]2[C@@H]3CC[C@@H]4C[C@H](O)CC[C@]4(C)[C@H]3CC[C@]12C [lithocholic acid, 3-α-hydroxy-5β-cholanoic acid] |  |  | known as inhibitors on DNA polymerase

Source: patent publication US20040093169A1, “Method of designing molecular structure of enzyme inhibitor” (TOYO SUISAN KAISHA, LTD., priority 2000, published 2004)
